According to patent US9187431B2, “Substituted phenyl(oxy/thio)alkanol derivatives” (Bayer Intellectual Property GMBH, priority 2009, dated 2015):

Assays:
[1] = tested on: Phakopsora pachyrhizi; assay: Phakopsora test (soya bean)/protective; assay type: in vivo, Phakopsora pachyrhizi on soya bean; conditions: 250 ppm, protective, evaluation 11 days after inoculation
[2] = tested on: Triticum aestivum (common wheat); assay: Phytoregulatory pre-emergence action, TRZAS; assay type: in vivo; conditions: 320 g of a.i./ha, visual assessment after approx. 3 weeks
Description: (§1) Phytoregulatory Pre-Emergence Action Seeds of monocotyledonous or dicotyledonous crop plants are placed in wood-fibre pots in sandy loam and covered with soil. […] After the treatment, the pots are placed in a greenhouse and kept under good growth conditions for the test plants. The visual assessment of the suppression of growth in the test plants is carried out after a trial period of approx. 3 weeks by comparison with untreated controls (phytoregulatory activity in percent: 100% activity=maximum inhibition of plant growth, 0% activity=plant growth like that of an untreated control.)

[3] = tested on: Viola tricolor (wild pansy); assay: Phytoregulatory pre-emergence action, VIOTR; assay type: in vivo; conditions: 320 g of a.i./ha, visual assessment after approx. 3 weeks
Description: as §1

[4] = tested on: Abuthilon theophrasti (velvetleaf); assay: Phytoregulatory pre-emergence action, ABUTH; assay type: in vivo; conditions: 320 g of a.i./ha, visual assessment after approx. 3 weeks
Description: as §1

[5] = tested on: Fusarium proliferatum; assay: microbe, parasite or virus in culture; assay type: cell-based; conditions: 120 h, read-out: inhibition of fumonisin FB1 production
[6] = tested on: Rhizoctonia solani; assay: Rhizoctonia test (rice)/protective; assay type: in vivo, Rhizoctonia solani on rice; conditions: 500 ppm active compound, protective, evaluation 4 days after inoculation
Description: Rhizoctonia Test (Rice)/Protective [table] To produce a suitable preparation of active compound, 1 part by weight of active compound is mixed with the stated amount of solvent, and the concentrate is diluted with water and the stated amount of emulsifier to the desired concentration. To test for protective activity, young rice plants are sprayed with the preparation of active compound at the stated application rate. 1 day after the treatment, the plants are inoculated with hyphae of Rhizoctonia solani. The plants are then placed in a greenhouse at a relative atmospheric humidity of 100% and a temperature of 25° C.

[7] = tested on: Brassica napus (rape); assay: Phytoregulatory pre-emergence action, BRSNW; assay type: in vivo; conditions: 320 g of a.i./ha, visual assessment after approx. 3 weeks
Description: as §1

[8] = tested on: Fusarium graminearum; assay: microbe, parasite or virus in culture; assay type: cell-based; conditions: 168 h, read-out: inhibition of DON/AcDON production
[9] = tested on: Pyricularia oryzae; assay type: in vivo, Pyricularia oryzae on rice; conditions: 500 ppm active compound, protective, rice, evaluation 7 days after inoculation
[10] = tested on: Cochliobolus miyabeanus; assay: Cochliobolus test (rice)/protective; assay type: in vivo, Cochliobolus miyabeanus on rice; conditions: 500 ppm active compound, protective, evaluation 7 days after inoculation
[11] = tested on: Setaria viridis (green foxtail); assay: Phytoregulatory pre-emergence action, SETVI; assay type: in vivo; conditions: 320 g of a.i./ha, visual assessment after approx. 3 weeks
Description: as §1

[12] = assay type: physicochemical; conditions: pH 2.7
Description: The log P values were measured according to EEC directive 79/831 Annex V.A8 by HPLC (High Performance Liquid Chromatography) on reversed-phase columns (C 18), using the methods below: [α] The LC-MS determination in the acidic range is carried out at pH 2.7 using the mobile phases 0.1% aqueous formic acid and acetonitrile (contains 0.1% formic acid), linear gradient from 10% acetonitrile to 95% acetonitrile

Compound	logP [12]	also measured
CC(C)(C)C(O)(COc1ccc(Br)cc1F)Cn1cncn1 (stereo not drawn) [Compound 8]	–	efficacy [1]: ≥ 80%
Cc1cc(Br)ccc1OCC(O)(c1cncnc1)C(C)(C)C (stereo not drawn) [Compound 12]	–	Inhibition of the growth of useful or harmful plants in %, TRZAS [2]: 50%; Inhibition of the growth of useful or harmful plants in %, VIOTR [3]: 90%; Inhibition of the growth of useful or harmful plants in %, ABUTH [4]: 80%; inhibition at 50 µM [5]: > 80%; efficacy [6]: ≥ 80%; Inhibition of the growth of useful or harmful plants in %, BRSNW [7]: 60%; inhibition at 50 µM [8]: > 80%; efficacy [9]: ≥ 80%; efficacy [10]: ≥ 80%; Inhibition of the growth of useful or harmful plants in %, SETVI [11]: 90%
CC(C)(C)C(O)(COc1ccc(Br)c(F)c1F)c1cncnc1 (stereo not drawn) [Compound 13]	–	inhibition at 50 µM [5]: > 80%; inhibition at 50 µM [8]: > 80%
Cc1cc(OCC(O)(Cn2cncn2)C(C)(C)C)ccc1Br (stereo not drawn) [Compound 19]	logP 3.41 ^[a], [M]^+ = 370/372	–
COc1cc(Br)ccc1OCC(O)(Cn1cncn1)C(C)(C)C (stereo not drawn) [Compound 20]	logP 3.09 ^[a], [M]^+ = 386/388	–
CC(C)(C)C(O)(COc1c(Cl)cc(Br)cc1Cl)Cn1cncn1 (stereo not drawn) [Compound 21]	logP 4.04 ^[a], [M]^+ = 423.9/426	–
Cc1cc(Br)ccc1OCC(O)(Cn1cncn1)C(C)(C)C (stereo not drawn) [Compound 22]	logP 3.5 ^[a], [M]^+ = 370/372	–
Cc1cc(OCC(O)(Cn2cncn2)C(C)(C)C)cc(C)c1Br (stereo not drawn) [Compound 23]	logP 3.85 ^[a], [M]^+ = 384/386	–
Cc1cc(Br)cc(C)c1OCC(O)(Cn1cncn1)C(C)(C)C (stereo not drawn) [Compound 24]	logP 3.85 ^[a], [M]^+ = 384/386	–
Cc1cc(Br)cc(Cl)c1OCC(O)(Cn1cncn1)C(C)(C)C (stereo not drawn) [Compound 25]	logP 3.99 ^[a], [M]^+ = 403.9/407	–
CC(C)(C)C(O)(COc1ccc(Br)cc1Cl)Cn1cncn1 (stereo not drawn) [Compound 26]	logP 3.59 ^[a], [M]^+ = 389.9/393	–
COc1cc(OCC(O)(Cn2cncn2)C(C)(C)C)ccc1Br (stereo not drawn) [Compound 27]	logP 2.92 ^[a], [M]^+ = 386/388	–
CC(C)(C)C(O)(COc1c(F)cc(Br)cc1Cl)Cn1cncn1 (stereo not drawn) [Compound 28]	logP 3.76 ^[a], [M]^+ =407.9/411	–
CC(C)(C)C(O)(COc1cc(F)c(Br)cc1F)Cn1cncn1 (stereo not drawn) [Compound 29]	logP 3.21 ^[a], [M]^+ = 392/394	–
CC(C)(C)C(O)(COc1ccc(Br)c(F)c1)Cn1cncn1 (stereo not drawn) [Compound 30]	logP 3.13 ^[a], [M]^+ = 374/376	–
CC(C)(C)C(O)(COc1c(F)cc(Br)cc1F)Cn1cncn1 (stereo not drawn) [Compound 31]	logP 3.37 ^[a], [M]^+ = 392/394	–
CC(C)(C)C(O)(COc1ccc(Br)c(C(F)(F)F)c1)Cn1cncn1 (stereo not drawn) [Compound 32]	logP 3.59 ^[a], [M]^+ = 424/426	–

Compound	logP [12]	also measured
CC(C)(C)C(O)(COc1cc(F)c(Br)c(F)c1)Cn1cncn1 (stereo not drawn) [Compound 33]	logP 3.25 ^[a], [M]^+ = 392/394	–
CC(C)(C)C(O)(COc1ccc(Br)c(F)c1F)Cn1cncn1 (stereo not drawn) [Compound 34]	logP 3.29 ^[a], [M]^+ = 392/394	–
CC(C)(C)C(O)(COc1ccc(Br)c(OC(F)(F)F)c1)Cn1cncn1 (stereo not drawn) [Compound 35]	logP 3.72^[a], [M]^+ = 440/441	–
Cc1cc(OCC(O)(Cn2cncn2)C(C)(C)C)c(C)cc1I (stereo not drawn) [Compound 36]	logP 4.15 ^[a], [M]^+ = 430/432	–
Cc1cc(OCC(O)(Cn2cncn2)C(C)(C)C)cc(C)c1I (stereo not drawn) [Compound 37]	logP 4.04 ^[a], [M]^+ = 430/432	–
Cc1cc(I)cc(C)c1OCC(O)(Cn1cncn1)C(C)(C)C (stereo not drawn) [Compound 38]	logP 4.04 ^[a], [M]^+ = 430/432	–
Cc1cc(OCC(O)(Cn2cncn2)C2(C)CC2)cc(C)c1Br (stereo not drawn) [Compound 39]	logP 3.5 ^[a], [M]^+ = 382/384	–
Cc1cc(Br)cc(Cl)c1OCC(O)(Cn1cncn1)C1(C)CC1 (stereo not drawn) [Compound 40]	logP 3.68 ^[a], [M]^+ = 402/405	–
CC1(C(O)(COc2ccc(Br)cc2Cl)Cn2cncn2)CC1 (stereo not drawn) [Compound 41]	logP 3.22 ^[a], [M]^+ = 388/391	–
COc1cc(OCC(O)(Cn2cncn2)C2(C)CC2)ccc1Br (stereo not drawn) [Compound 42]	logP 2.67 ^[a], [M]^+ = 384/386	–
CC1(C(O)(COc2cc(F)c(Br)c(F)c2)Cn2cncn2)CC1 (stereo not drawn) [Compound 43]	logP 2.95 ^[a], [M]^+ = 390/391	–
CC1(C(O)(COc2ccc(Br)c(F)c2F)Cn2cncn2)CC1 (stereo not drawn) [Compound 44]	logP 2.95 ^[a], [M]^+ = 390/391	–
Cc1cc(OCC(O)(Cn2cncn2)C2(C)CC2)c(C)cc1I (stereo not drawn) [Compound 45]	logP 3.76 ^[a], [M]^+ = 428/430	–
Cc1cc(OCC(O)(Cn2cncn2)C2(C)CC2)cc(C)c1I (stereo not drawn) [Compound 46]	logP 3.68 ^[a], [M]^+ = 428/430	–
Cc1cc(I)ccc1OCC(O)(Cn1cncn1)C1(C)CC1 (stereo not drawn) [Compound 47]	logP 3.37 ^[a], [M]^+ = 414/416	–
Cc1cc(OCC(O)(Cn2cncn2)C2(C)CC2)ccc1Br (stereo not drawn) [Compound 48]	logP 3.1 ^[a], [M]^+ = 368/369	–
CC(C)(C)C(O)(COc1ccc(Cl)cc1Cl)c1cncnc1 (stereo not drawn) [EP-A 0 028 755, Example 5, reference compound]	–	Inhibition of the growth of useful or harmful plants in %, TRZAS [2]: 40%; Inhibition of the growth of useful or harmful plants in %, VIOTR [3]: 90%; Inhibition of the growth of useful or harmful plants in %, ABUTH [4]: 40%; Inhibition of the growth of useful or harmful plants in %, BRSNW [7]: 60%; Inhibition of the growth of useful or harmful plants in %, SETVI [11]: 80%
